Source: ChEMBL document CHEMBL4651402, “Screening of ~5500 FDA-approved drugs and clinical candidates for anti-SARS-CoV-2 activity” (2021)

System: SARS-CoV-2
Assay: microbe, parasite or virus in culture
Settings: Severe acute respiratory syndrome coronavirus 2, Vero C1008, 48 h

CC12CCC3c4ccc(OS(=O)(=O)O)cc4CCC3C1CCC2O (configuration not stated)
IC50: > 20 µM
IC50 (read-out: pIC50 (converted)): > 20 µM

C=CCc1ccccc1OC[C@@H](O)CNC(C)C
IC50: > 20 µM
IC50 (read-out: pIC50 (converted)): > 20 µM

CC(=O)[C@H]1CC[C@H]2[C@@H]3CC=C4C[C@@H](OS(=O)(=O)O)CC[C@]4(C)[C@H]3CC[C@]12C
IC50: > 20 µM
IC50 (read-out: pIC50 (converted)): > 20 µM

O=c1c2ccccc2nc2n1CCCC2
IC50: > 20 µM
IC50 (read-out: pIC50 (converted)): > 20 µM

COc1cnc(NS(=O)(=O)c2ccc(N)cc2)nc1
IC50: > 20 µM
IC50 (read-out: pIC50 (converted)): > 20 µM

C[N+]1(C)CCC(=C(c2ccccc2)c2ccccc2)CC1
IC50: > 20 µM
IC50 (read-out: pIC50 (converted)): > 20 µM

CCN(CC)C(=O)c1ccc(O)c(OC)c1
IC50: > 20 µM
IC50 (read-out: pIC50 (converted)): > 20 µM

CC(=O)c1ccc(C)cc1N[C@H](C(N)=O)c1c(Cl)cccc1Cl
IC50: > 20 µM
IC50 (read-out: pIC50 (converted)): > 20 µM

COC(=O)[C@@H](N)CCCNC(=N)N[N+](=O)[O-]
IC50: > 20 µM
IC50 (read-out: pIC50 (converted)): > 20 µM

CN1CCC(OC(c2ccccc2)c2ccccc2)CC1
IC50: > 20 µM
IC50 (read-out: pIC50 (converted)): > 20 µM

CN1CCC[C@@H]1Cc1c[nH]c2ccc(CCS(=O)(=O)c3ccccc3)cc12
IC50: > 20 µM
IC50 (read-out: pIC50 (converted)): > 20 µM

O=C1C(Cl)=C(Cl)C(=O)c2c(O)ccc(O)c21
IC50: > 20 µM
IC50 (read-out: pIC50 (converted)): > 20 µM

CN(C)N=Nc1[nH]cnc1C(N)=O
IC50: > 20 µM
IC50 (read-out: pIC50 (converted)): > 20 µM

NC(=O)c1[nH]cnc1N
IC50: > 20 µM
IC50 (read-out: pIC50 (converted)): > 20 µM

CC(=O)OCC1=C(C(=O)O)N2C(=O)[C@@H](N)[C@H]2SC1
IC50: > 20 µM
IC50 (read-out: pIC50 (converted)): > 20 µM

CC(C)c1ccc2c(c1)CCC1C(C)(CN)CCCC21C (configuration not stated)
IC50: > 20 µM
IC50 (read-out: pIC50 (converted)): > 20 µM

CC(C)N1CCN(c2ccc(N3CCN(c4ccc(OC[C@@H]5OC[C@@](Cn6cncn6)(c6ccc(F)cc6F)O5)cc4)CC3)cc2)C1=O
IC50: > 20 µM
IC50 (read-out: pIC50 (converted)): > 20 µM

CC(C)CCC[C@@H](C)[C@H]1CC[C@H]2[C@@H]3CC=C4CC(O)CC[C@]4(C)[C@H]3CC[C@]12C (some centres not stated)
IC50: > 20 µM
IC50 (read-out: pIC50 (converted)): > 20 µM

CC(=O)SC[C@@H](C)C(=O)N1CCC[C@H]1C(=O)N[C@@H](Cc1ccccc1)C(=O)O
IC50: > 20 µM
IC50 (read-out: pIC50 (converted)): > 20 µM

CCCNS(=O)(=O)Nc1ncnc(OCCOc2ncc(Br)cn2)c1-c1ccc(Br)cc1
IC50: > 20 µM
IC50 (read-out: pIC50 (converted)): > 20 µM

Cc1ccc2c([nH]c(=O)c3c(=O)cc(C(=O)OCCC(C)C)oc32)c1C
IC50: > 20 µM
IC50 (read-out: pIC50 (converted)): > 20 µM

NC(=O)c1nc(F)cnc1O
IC50: > 50.1 µM
IC50 (read-out: pIC50 (converted)): > 50.1 µM

CNC(=O)[C@@H](NC(=O)[C@H](CC(C)C)[C@H](O)C(=O)NO)C(C)(C)C
IC50: > 20 µM
IC50 (read-out: pIC50 (converted)): > 20 µM

CC(=O)N[C@H](Cc1c[nH]c2ccccc12)C(=O)O
IC50: > 20 µM
IC50 (read-out: pIC50 (converted)): > 20 µM

COc1ccc(-c2cc(=O)c3c(O)cc(O[C@@H]4O[C@H](CO[C@H]5O[C@H](C)[C@@H](O)[C@H](O)[C@@H]5O)[C@@H](O)[C@H](O)[C@H]4O)cc3o2)cc1O
IC50: > 20 µM
IC50 (read-out: pIC50 (converted)): > 20 µM

c1ccc2c(c1)cc1ccc3cccc4ccc2c1c34
IC50: > 20 µM
IC50 (read-out: pIC50 (converted)): > 20 µM

COC(=O)N[C@H](C(=O)N1CCC[C@H]1c1ncc(-c2ccc(-c3ccc(-c4cnc([C@@H]5CC6(CN5C(=O)[C@@H](NC(=O)OC)C(C)C)OCCO6)[nH]4)cc3)cc2)[nH]1)C(C)C
IC50: > 20 µM
IC50 (read-out: pIC50 (converted)): > 20 µM

NC1CC1c1ccccc1 (configuration not stated)
IC50: > 20 µM
IC50 (read-out: pIC50 (converted)): > 20 µM

C[C@]12CC[C@H](O)CC1CC[C@@H]1[C@@H]2CC[C@]2(C)C(=O)CC[C@@H]12 (some centres not stated)
IC50: > 20 µM
IC50 (read-out: pIC50 (converted)): > 20 µM

CC=CC(=O)N(CC)c1ccccc1C
IC50: > 20 µM
IC50 (read-out: pIC50 (converted)): > 20 µM

NC(CSSCC(N)C(=O)O)C(=O)O (configuration not stated)
IC50: > 20 µM
IC50 (read-out: pIC50 (converted)): > 20 µM

CC(=O)c1cnc2ccc(-c3cc(Cl)c(O)c(Cl)c3)nc2c1N[C@H]1CC[C@H](CN(C)C)CC1
IC50: > 20 µM
IC50 (read-out: pIC50 (converted)): > 20 µM

CC(C)Cc1sc(-c2nccs2)nc1C(=O)NCc1ccc(F)cc1
IC50: > 20 µM
IC50 (read-out: pIC50 (converted)): > 20 µM

O=C(O)c1ccc(C2CC2c2ccc(OCc3c(-c4c(Cl)cccc4Cl)noc3C3CC3)cc2Cl)cc1 (configuration not stated)
IC50: > 20 µM
IC50 (read-out: pIC50 (converted)): > 20 µM

COCc1c(-c2ccc(NC(=O)Nc3cc(C(F)(F)F)ccc3F)c(F)c2)c2c(N)ncnn2c1CN1CCOCC1
IC50: > 20 µM
IC50 (read-out: pIC50 (converted)): > 20 µM

Nc1ccc(N)cc1
IC50: > 20 µM
IC50 (read-out: pIC50 (converted)): > 20 µM

O=C(O)CCCCCCC[C@@H](O)[C@@H](O)CCCCCCO
IC50: > 20 µM
IC50 (read-out: pIC50 (converted)): > 20 µM

OC[C@H]1O[C@H](O)C[C@@H](O)[C@@H]1O
IC50: > 20 µM
IC50 (read-out: pIC50 (converted)): > 20 µM

CC(C)OC(=O)[C@H](C)NP(=O)(OC[C@H]1O[C@@H](n2ccc(=O)[nH]c2=O)[C@](C)(Cl)[C@@H]1O)Oc1ccccc1 (some centres not stated)
IC50: > 20 µM
IC50 (read-out: pIC50 (converted)): > 20 µM

CCOC(N)=O
IC50: > 20 µM
IC50 (read-out: pIC50 (converted)): > 20 µM

NC1=NCC(CN2CCN(c3ccccc3)CC2)O1 (configuration not stated)
IC50: > 20 µM
IC50 (read-out: pIC50 (converted)): > 20 µM

CC(C)CC1C(=O)N2CCCC2C2(O)OC(NC(=O)C3CC4c5cccc6[nH]cc(c56)CC4N(C)C3)(C(C)C)C(=O)N12 (configuration not stated)
IC50: > 20 µM
IC50 (read-out: pIC50 (converted)): > 20 µM

N=C(N)Nc1ccc(C(=O)Oc2ccc3c(c2)OC[C@H]3CC(=O)N[C@@H](CC(=O)O)C(=O)O)cc1
IC50: > 20 µM
IC50 (read-out: pIC50 (converted)): > 20 µM

O=C(O)c1ccc(CN2CC3CC2CN3Cc2ccc(Oc3ccc(-c4ncco4)cc3)cc2)cc1 (configuration not stated)
IC50: > 20 µM
IC50 (read-out: pIC50 (converted)): > 20 µM

O=C(O)CC/C=C\C[C@H]1CO[C@@H](c2ccccc2Cl)O[C@H]1c1ccccc1O
IC50: > 20 µM
IC50 (read-out: pIC50 (converted)): > 20 µM

c1ccc([C@@H]2CN=C3NCCN32)cc1
IC50: > 20 µM
IC50 (read-out: pIC50 (converted)): > 20 µM

CN(C)[C@@H]1[C@@H]2C=CC[C@H]1c1ccccc1C2
IC50: > 20 µM
IC50 (read-out: pIC50 (converted)): > 20 µM

Nc1ncnc2c1nc(Cl)n2C1O[C@H](CO)[C@@H](O)[C@H]1O (some centres not stated)
IC50: > 20 µM
IC50 (read-out: pIC50 (converted)): > 20 µM

CCCCc1ncc(C=C(Cc2cccs2)C(=O)O)n1Cc1ccc(C(=O)O)cc1
IC50: > 20 µM
IC50 (read-out: pIC50 (converted)): > 20 µM

C[C@H]1O[C@H](OC[C@@H]2O[C@H](Oc3c(-c4ccc(O)c(O)c4)oc4cc(O)cc(O)c4c3=O)[C@@H](O)[C@H](O)[C@H]2O)[C@@H](O)[C@@H](O)[C@@H]1O
IC50: > 20 µM
IC50 (read-out: pIC50 (converted)): > 20 µM

COc1ccc(-c2nc3cc(C4=NNC(=O)C[C@H]4C)ccc3[nH]2)cc1
IC50: > 20 µM
IC50 (read-out: pIC50 (converted)): > 20 µM

CC(CCC(=O)O)C1CCC2C3C[C@H](O)[C@@H]4C[C@H](O)CC[C@]4(C)C3CC[C@]12C (some centres not stated)
IC50: > 20 µM
IC50 (read-out: pIC50 (converted)): > 20 µM

CN(C)C1C(O)=C(C(N)=O)C(=O)C2(O)C(O)=C3C(=O)c4c(O)ccc(Cl)c4C(C)(O)C3CC12 (configuration not stated)
IC50: > 20 µM
IC50 (read-out: pIC50 (converted)): > 20 µM

CCCCN1C[C@@H](O)[C@@H](O)[C@H](O)[C@H]1CO
IC50: > 20 µM
IC50 (read-out: pIC50 (converted)): > 20 µM

CCC(=O)Oc1ccc2c(c1)CCC1C2CCC2(C)C(OC(=O)CC)CCC12 (configuration not stated)
IC50: > 20 µM
IC50 (read-out: pIC50 (converted)): > 20 µM

C/C(=N/NC(=N)N)c1cc(NC(=O)CCCCCCCCC(=O)Nc2cc(/C(C)=N\NC(=N)N)cc(/C(C)=N/NC(=N)N)c2)cc(/C(C)=N/NC(=N)N)c1
IC50: > 20 µM
IC50 (read-out: pIC50 (converted)): > 20 µM

CCC(C)C1OC2(CCC1C)CC1CC(C/C=C(/C)C(OC3CC(OC)C(OC4CC(OC)C(O)C(C)O4)C(C)O3)C(C)/C=C\C=C3\COC4C(O)C(C)=CC(C(=O)O1)C34O)O2 (configuration not stated)
IC50: > 20 µM
IC50 (read-out: pIC50 (converted)): > 20 µM

CC1CC[C@@]2(OC1)OC1CC3C4CC[C@H]5C[C@@H](O)CC[C@]5(C)C4C[C@@H](O)[C@]3(C)C1[C@@H]2C (some centres not stated)
IC50: > 20 µM
IC50 (read-out: pIC50 (converted)): > 20 µM

OC[C@@H]1CCCN2CCCCC12 (some centres not stated)
IC50: > 20 µM
IC50 (read-out: pIC50 (converted)): > 20 µM

CCOc1ccc(NC(=O)C(C)O)cc1 (configuration not stated)
IC50: > 20 µM
IC50 (read-out: pIC50 (converted)): > 20 µM

COC(=O)CCC(C)C1CCC2C3C(C[C@H](O)[C@]12C)[C@@]1(C)CC[C@@H](O)C[C@H]1C[C@H]3O (some centres not stated)
IC50: > 20 µM
IC50 (read-out: pIC50 (converted)): > 20 µM

O=C(O)CCCCCc1cccc2cncn12
IC50: > 20 µM
IC50 (read-out: pIC50 (converted)): > 20 µM

CC1OC(n2cc(F)c(=O)[nH]c2=O)C(O)C1O (configuration not stated)
IC50: > 20 µM
IC50 (read-out: pIC50 (converted)): > 20 µM

O=C(/C=C/c1ccc(O)c(O)c1)OC(Cc1ccc(O)c(O)c1)C(=O)O (configuration not stated)
IC50: > 20 µM
IC50 (read-out: pIC50 (converted)): > 20 µM

COc1cccc(OC)c1-c1ccc(C[C@H](NC(=O)c2c(Cl)cccc2Cl)C(=O)O)cc1
IC50: > 20 µM
IC50 (read-out: pIC50 (converted)): > 20 µM

Cc1ccc(C[N+](C)(C)C)o1
IC50: > 20 µM
IC50 (read-out: pIC50 (converted)): > 20 µM
